Measurements published in patent US11458106B2, “Lipid nanoparticles comprising lipophilic anti-inflammatory agents and methods of use thereof” (ASTRAZENECA AB, priority 2016, dated 2022).

Assays:
[1] = tested on: mice (female, Crl:Cd1(ICR)); experiment: Edema scoring at injection area after subcutaneous administration; assay type: in vivo
Procedure: (§1) Different groups of 5 mice (female, age˜12 weeks, Crl:Cd1(ICR), Charles River) were administered with PBS (negative control) or mRNA 1 formulated in lipid nanoparticles. Prior to administration, the mice were lightly anaesthetized with Isoflurane 5% and the injection area was shaved. The formulations were then injected subcutaneously (5 ml/kg or 0.3 mg mRNA/kg) in the intrascapular region to different groups of mice. Post-dose blood samples were collected and plasma was prepared by centrifugation. Aliquots of plasma were transferred into cryo tubes (0.5 ml U-shaped polypropylene cryotubes (Sarstedt Microtube with cap Ref #72.730) and stored frozen until quantification of haptoglobin, cytokines/chemokines and mRNA 1 protein concentrations. In some studies, quantification was also carried out of lipophilic anti-inflammatory agent in plasma samples. At 24 hours after administration, clinical signs of inflammatory response was evaluated by gently pressing the finger over the injection area to determine edema and judged by visual inspection as edema or no edema in the different mice. The number of mice displaying visible signs of edema per group (each group having 5 mice) was summed to give an edema score of 0-5.

[2] = tested on: haptoglobin; experiment: Quantification of haptoglobin in plasma; assay type: in vivo, mice; conditions: 24 h; for haptoglobin in plasma: s.c. 0.3 mg mRNA/kg
Procedure: as §1
Plasma concentrations of haptoglobin were measured by EMD Millipore's MILLIPLEX® MAP Mouse Acute Phase panel 2 kit (Merck KGaA, Darmstadt, Germany). The sample was first diluted 1:20 000 with Assay buffer then, together with standard's and QC's placed in a 96 well plate. A solution containing beads were then added. The beads were magnetic microspheres each of which was coated with a specific antibody. The mixture was incubated over night at 4° C. and the reaction mixture was then incubated with Streptavidin-PE conjungate to complete the reaction on the surface of each microsphere. The plate was read on analyzer Luminex® 100. Each individual microsphere was identified and the result of its bioassay quantified based on fluorescent reporter signals. The concentration was measured using Median Fluorescent Intensity (MFI) data using a 5-parameter logistic curve-fitting method.

[3] = tested on: IL-6; experiment: Quantification of cytokines/chemokines in plasma: IL-6; assay type: in vivo, mice; conditions: Example 10; pro-drug in L608 (Merck-32) LNPs, s.c. 0.3 mg mRNA/kg, 7 and 24 hours; vs. Sample S26
Procedure: (§2) Different groups of 5 mice (female, age˜12 weeks, Crl:Cd1(ICR), Charles River) were administered with PBS (negative control) or mRNA 1 formulated in lipid nanoparticles. Prior to administration, the mice were lightly anaesthetized with Isoflurane 5% and the injection area was shaved. The formulations were then injected subcutaneously (5 ml/kg or 0.3 mg mRNA/kg) in the intrascapular region to different groups of mice. Post-dose blood samples were collected and plasma was prepared by centrifugation. Aliquots of plasma were transferred into cryo tubes (0.5 ml U-shaped polypropylene cryotubes (Sarstedt Microtube with cap Ref #72.730) and stored frozen until quantification of haptoglobin, cytokines/chemokines and mRNA 1 protein concentrations. In some studies, quantification was also carried out of lipophilic anti-inflammatory agent in plasma samples. At 24 hours after administration, clinical signs of inflammatory response was evaluated by gently pressing the finger over the injection area to determine edema and judged by visual inspection as edema or no edema in the different mice. The number of mice displaying visible signs of edema per group (each group having 5 mice) was summed to give an edema score of 0-5. Plasma concentrations of murine cytokines/chemokines were measured by EMD Millipore's MILLIPLEX® MAP Mouse Cytokine magnetic bead kit (Merck KGaA, Darmstadt, Germany) for the simultaneous quantification of cytokines; IL-6, KC, MCP-1 and IP-10. The samples were first diluted 1:2 with Assay buffer then, together with standard's and QC's placed in a 96 well plate. A solution containing beads were added. The beads are magnetic microspheres each of which is coated with a specific antibody. The mixture was incubated over night at 4° C. and the reaction mixture was then incubated with Streptavidin-PE conjungate to complete the reaction on the surface of each microsphere. The plate was read on analyzer Luminex® 100. Each individual microsphere was identified and the result of its bioassay quantified based on fluorescent reporter signals. The concentration was measured using Median Fluorescent Intensity (MFI) data using a 5-parameter logistic curve-fitting method.

[4] = tested on: KC; experiment: Quantification of cytokines/chemokines in plasma: KC; assay type: in vivo, mice; conditions: Example 10; pro-drug in L608 (Merck-32) LNPs, s.c. 0.3 mg mRNA/kg, 7 and 24 hours; vs. Sample S26
Procedure: as §2

[5] = tested on: mRNA 1 protein; experiment: Quantification of mRNA 1 protein in plasma; assay type: in vivo, mice; conditions: s.c. 0.3 mg mRNA/kg; for expression of mRNA 1 (plasma): Example 10, pro-drug in L608 (Merck-32) LNPs, vs. conventional LNPs (Sample S26); for protein expression (plasma mRNA 1 protein): Example 6, pro-drug in DLin-MC3-DMA LNPs, 0-24 h, vs. non-anti-inflammatory LNPs
Procedure: as §1
mRNA 1 protein was measured as a single analyte with the Milliplex Human Liver Protein Magnetic beads [Merck Millipore, Darmstadt, Germany]. The assay was performed using the Bioplex Multiplex Suspension Array System, Luminex 100TM] and Bioplex Manager 6.1 software curve fitting software [Bio-Rad Laboratories, Hercules, Calif.]. Briefly, the assay was performed according to a modified protocol based upon the manufacturers' instruction, with additional calibration points to extend the lower range of the standard curve. Sample data was back calculated from the standard curve (5PL curve fitting).

[6] = Example 10, pro-drug in L608 (Merck-32) LNPs, s.c. 0.3 mg mRNA/kg, vs. conventional LNPs (Sample S26)
[7] = Example 10, pro-drug in L608 (Merck-32) LNPs, vs. conventional LNPs (Sample S26)
[8] = Example 6, pro-drug in DLin-MC3-DMA LNPs with mRNA 1, s.c. 0.3 mg mRNA/kg, vs. non-anti-inflammatory LNPs
[9] = Example 6, pro-drug in DLin-MC3-DMA LNPs, vs. non-anti-inflammatory LNPs
[10] = Example 7, in both DLin-MC3-DMA or Merck-32 based LNPs
[11] = Example 9, in both Acuitas-5 and KL10 based LNPs, s.c. 0.3 mg/kg, compared to LNPs based on DLin-MC3-DMA

| Compound | inflammation measured as edema scoring [1, 6] | haptoglobin in plasma [2, 7] | plasma IL-6 [3] | plasma KC [4] | expression of mRNA 1 (plasma) [5] | inflammation measured as edema scoring [1, 8] | haptoglobin in plasma [2, 9] | protein expression (plasma mRNA 1 protein) [5] | inflammation measured as edema scoring ([1]; Example 7, in both DLin-MC3-DMA or Merck-32 based LNPs, s.c. 0.3 mg mRNA/kg, 24 h, vs same LNPs without) | haptoglobin in plasma [2, 10] | expression of mRNA 1 protein [5, 10] | inflammation measured as edema scoring [1, 11] | plasma haptoglobin [2, 11] | mRNA 1 protein expression ([5]; Example 9, time interval 0-24 h, Acuitas-5 and KL10 LNPs with vs without rofleponide myristate) |
| --- | --- | --- | --- | --- | --- | --- | --- | --- | --- | --- | --- | --- | --- | --- |
| CCCCCCCC/C=C\CCCCCCCC(=O)OCC(=O)[C@@]12OC(CCC)O[C@@H]1C[C@H]1[C@@H]3CCC4=CC(=O)C=C[C@]4(C)[C@H]3[C@@H](O)C[C@@]12C (stereo partly shown) [B-C18:1, budesonide oleate] | significantly reduce | significantly reduce | significantly reduce | significantly reduce | increased and prolonged expression of mRNA 1 |  |  |  |  |  |  |  |  |  |
| CCCCCCCCCCCCCCCCCC(=O)OCC(=O)[C@@]12O[C@H](CCC)O[C@@H]1C[C@H]1[C@@H]3C[C@H](F)C4=CC(=O)CC[C@]4(C)[C@@]3(F)[C@@H](O)C[C@@]12C [R-C18, rofleponide stearate] |  |  |  |  |  | significantly reduced | significantly reduced | increased and prolonged protein expression |  |  |  |  |  |  |
| CCCCCCCCCCCCCCCC(=O)OCC(=O)C12OC(CCC)OC1CC1C3CC(F)C4=CC(=O)CCC4(C)C3(F)C(O)CC12C (stereo not shown) [R-C16, rofleponide palmitate] |  |  |  |  |  | significantly reduced | significantly reduced | increased and prolonged protein expression | significantly reduced | significantly reduced | increased expression of mRNA 1 protein |  |  |  |
| CCCCCCCCCCCCCC(=O)OCC(=O)C12OC(CCC)OC1CC1C3CC(F)C4=CC(=O)CCC4(C)C3(F)C(O)CC12C (stereo not shown) [R-C14, rofleponide myristate] | significantly reduce | significantly reduce | significantly reduce | significantly reduce | increased and prolonged expression of mRNA 1 | significantly reduced | significantly reduced | increased and prolonged protein expression |  |  |  | reduced | reduced | increased |
| CCCCCCCCCCCCCCCC(=O)OCC(=O)[C@@]12OC(CCC)O[C@@H]1C[C@H]1[C@@H]3CCC4=CC(=O)C=C[C@]4(C)[C@H]3[C@@H](O)C[C@@]12C (stereo partly shown) [B-C16, budesonide palmitate] | significantly reduce | significantly reduce | significantly reduce | significantly reduce | increased and prolonged expression of mRNA 1 |  |  |  |  |  |  |  |  |  |
| CCCCCCCCCCCCCC(=O)OCC(=O)[C@@]12OC(CCC)O[C@@H]1C[C@H]1[C@@H]3CCC4=CC(=O)C=C[C@]4(C)[C@H]3[C@@H](O)C[C@@]12C (stereo partly shown) [B-C14, budesonide myristate] | not influenced to the same extent | not influenced to the same extent | not influenced to the same extent | not influenced to the same extent |  |  |  |  |  |  |  |  |  |  |
| CCCCC(=O)OCC(=O)[C@@]12O[C@H](CCC)O[C@@H]1C[C@H]1[C@@H]3C[C@H](F)C4=CC(=O)CC[C@]4(C)[C@@]3(F)[C@@H](O)C[C@@]12C [R-C5, rofleponide valerate] |  |  |  |  |  | not significantly influenced | not significantly influenced | did not produce a significantly increased total protein expression |  |  |  |  |  |  |
